Paper PMC4010550, “Imidazol-1-ylethylindazole Voltage-Gated Sodium Channel Ligands Are Neuroprotective during Optic Neuritis in a Mouse Model of Multiple Sclerosis” (Journal of Medicinal Chemistry, 2014)
Where two headings read alike, the source gives them in different places. Marks after values point to notes of the source that are not given here.

Tests used:
[1] = system: rat hippocampal slices; assay: in vitro neuroprotection assay, hippocampal slices under oxygen-glucose deprivation, ATP levels; assay type: cell-based; details: for Emax at 50 µM: Rattus norvegicus
[2] = system: sodium channels; parameters: method as in PMID 19341281; details: reported previously / values reported in literature; read-out: [3H]sipatrigine binding, IC50; cited from earlier work
[3] = system: rat hippocampal slices; parameters: method as in PMID 19341281; details: reported previously; cited from earlier work
[4] = target: hNav1.1 (Homo sapiens, UniProt P35498); assay: automated patch-clamp Nav isoform screening; assay type: cell-based; details: Nav1.1
[5] = target: hNav1.8/β3 (Homo sapiens, UniProt Q9Y5Y9); assay: automated patch-clamp Nav isoform screening; assay type: cell-based; details: Nav1.8
[6] = target: hNav1.4 (Homo sapiens, UniProt P35499); assay: automated patch-clamp Nav isoform screening; assay type: cell-based; details: Nav1.4
[7] = target: hNav1.3 (Homo sapiens, UniProt Q9NY46); assay: automated patch-clamp Nav isoform screening; assay type: cell-based; details: Nav1.3
[8] = target: hNav1.7 (Homo sapiens, UniProt Q15858); assay: automated patch-clamp Nav isoform screening; assay type: cell-based; details: Nav1.7
[9] = target: hNav1.6 (Homo sapiens, UniProt Q9UQD0); assay: automated patch-clamp Nav isoform screening; assay type: cell-based; details: Nav1.6
[10] = target: hNav1.2 (Homo sapiens, UniProt Q99250); assay: automated patch-clamp Nav isoform screening; assay type: cell-based; details: Nav1.2
[11] = system: T-cell proliferation to oxazolone in lymphnodes; assay: contact hypersensitivity model / in vivo local lymph node assay (T-cell immunosuppressive activity); details: mouse, 5–50 mg/kg i.p. day −1 to day 2, oxazolone sensitization day 0, read day 3
[12] = target: hNav1.5 (Homo sapiens, UniProt Q14524); assay: automated patch-clamp Nav isoform screening; assay type: cell-based; details: Nav1.5
[13] = normalized to the effect of TTX

Chain of hNav1.8/β3 (Q9Y5Y9 whole entry, canonical isoform): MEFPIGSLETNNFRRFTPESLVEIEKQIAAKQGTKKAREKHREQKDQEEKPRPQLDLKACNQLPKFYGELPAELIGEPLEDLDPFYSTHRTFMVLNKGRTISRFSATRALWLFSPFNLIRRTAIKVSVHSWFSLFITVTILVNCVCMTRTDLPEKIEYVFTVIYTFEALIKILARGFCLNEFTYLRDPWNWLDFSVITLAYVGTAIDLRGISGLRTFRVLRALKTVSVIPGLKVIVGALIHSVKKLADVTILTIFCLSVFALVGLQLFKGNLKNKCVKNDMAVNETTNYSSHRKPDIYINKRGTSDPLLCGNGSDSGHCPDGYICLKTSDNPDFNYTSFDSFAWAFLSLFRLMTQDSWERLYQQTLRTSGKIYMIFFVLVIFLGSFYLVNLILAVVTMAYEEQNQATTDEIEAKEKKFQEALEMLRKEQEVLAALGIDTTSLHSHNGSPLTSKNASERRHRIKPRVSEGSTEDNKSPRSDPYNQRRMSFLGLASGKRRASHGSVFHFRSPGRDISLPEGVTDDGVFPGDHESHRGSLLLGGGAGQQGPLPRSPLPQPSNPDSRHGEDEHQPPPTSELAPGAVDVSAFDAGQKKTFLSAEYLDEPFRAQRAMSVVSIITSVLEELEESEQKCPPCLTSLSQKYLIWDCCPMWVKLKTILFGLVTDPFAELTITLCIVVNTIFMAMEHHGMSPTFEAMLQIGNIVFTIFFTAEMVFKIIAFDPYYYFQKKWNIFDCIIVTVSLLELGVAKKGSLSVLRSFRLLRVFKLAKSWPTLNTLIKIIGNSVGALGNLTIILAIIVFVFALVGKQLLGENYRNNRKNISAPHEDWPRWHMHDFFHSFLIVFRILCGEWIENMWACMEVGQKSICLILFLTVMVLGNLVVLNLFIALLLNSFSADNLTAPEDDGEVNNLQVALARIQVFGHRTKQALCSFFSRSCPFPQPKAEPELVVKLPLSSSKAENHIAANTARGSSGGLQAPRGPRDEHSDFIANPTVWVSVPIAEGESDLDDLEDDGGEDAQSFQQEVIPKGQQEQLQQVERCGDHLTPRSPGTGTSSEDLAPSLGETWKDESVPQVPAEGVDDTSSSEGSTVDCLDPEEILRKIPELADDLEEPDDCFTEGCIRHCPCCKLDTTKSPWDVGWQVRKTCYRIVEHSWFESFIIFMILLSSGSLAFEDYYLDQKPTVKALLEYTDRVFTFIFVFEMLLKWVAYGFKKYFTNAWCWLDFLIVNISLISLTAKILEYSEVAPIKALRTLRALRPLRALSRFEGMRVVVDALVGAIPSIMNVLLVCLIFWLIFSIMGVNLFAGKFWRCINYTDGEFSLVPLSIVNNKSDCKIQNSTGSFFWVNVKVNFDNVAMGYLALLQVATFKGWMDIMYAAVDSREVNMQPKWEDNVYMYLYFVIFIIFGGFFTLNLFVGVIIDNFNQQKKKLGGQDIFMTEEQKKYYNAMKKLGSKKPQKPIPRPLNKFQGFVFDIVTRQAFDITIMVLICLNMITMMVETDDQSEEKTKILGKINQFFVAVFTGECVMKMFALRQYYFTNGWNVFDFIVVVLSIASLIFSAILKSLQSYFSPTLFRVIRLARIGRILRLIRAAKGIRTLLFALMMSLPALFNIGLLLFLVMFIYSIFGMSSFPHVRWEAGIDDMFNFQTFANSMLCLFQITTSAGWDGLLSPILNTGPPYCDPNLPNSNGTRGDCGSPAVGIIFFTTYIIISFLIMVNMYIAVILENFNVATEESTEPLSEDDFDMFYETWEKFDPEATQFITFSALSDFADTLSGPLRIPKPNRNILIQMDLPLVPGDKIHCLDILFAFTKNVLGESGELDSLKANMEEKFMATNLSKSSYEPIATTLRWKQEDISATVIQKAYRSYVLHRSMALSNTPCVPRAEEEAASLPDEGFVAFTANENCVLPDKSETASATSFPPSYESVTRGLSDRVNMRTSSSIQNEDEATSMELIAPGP
Chain of hNav1.8/β3 (Q9NY72 25-215 partner limits assumed): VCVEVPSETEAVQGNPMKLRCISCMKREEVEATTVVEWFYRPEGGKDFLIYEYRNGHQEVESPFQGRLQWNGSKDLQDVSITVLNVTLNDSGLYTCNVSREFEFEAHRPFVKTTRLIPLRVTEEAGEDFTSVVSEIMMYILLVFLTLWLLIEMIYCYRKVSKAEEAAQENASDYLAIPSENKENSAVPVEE
Chain of hNav1.5 (Q14524 whole entry, canonical isoform): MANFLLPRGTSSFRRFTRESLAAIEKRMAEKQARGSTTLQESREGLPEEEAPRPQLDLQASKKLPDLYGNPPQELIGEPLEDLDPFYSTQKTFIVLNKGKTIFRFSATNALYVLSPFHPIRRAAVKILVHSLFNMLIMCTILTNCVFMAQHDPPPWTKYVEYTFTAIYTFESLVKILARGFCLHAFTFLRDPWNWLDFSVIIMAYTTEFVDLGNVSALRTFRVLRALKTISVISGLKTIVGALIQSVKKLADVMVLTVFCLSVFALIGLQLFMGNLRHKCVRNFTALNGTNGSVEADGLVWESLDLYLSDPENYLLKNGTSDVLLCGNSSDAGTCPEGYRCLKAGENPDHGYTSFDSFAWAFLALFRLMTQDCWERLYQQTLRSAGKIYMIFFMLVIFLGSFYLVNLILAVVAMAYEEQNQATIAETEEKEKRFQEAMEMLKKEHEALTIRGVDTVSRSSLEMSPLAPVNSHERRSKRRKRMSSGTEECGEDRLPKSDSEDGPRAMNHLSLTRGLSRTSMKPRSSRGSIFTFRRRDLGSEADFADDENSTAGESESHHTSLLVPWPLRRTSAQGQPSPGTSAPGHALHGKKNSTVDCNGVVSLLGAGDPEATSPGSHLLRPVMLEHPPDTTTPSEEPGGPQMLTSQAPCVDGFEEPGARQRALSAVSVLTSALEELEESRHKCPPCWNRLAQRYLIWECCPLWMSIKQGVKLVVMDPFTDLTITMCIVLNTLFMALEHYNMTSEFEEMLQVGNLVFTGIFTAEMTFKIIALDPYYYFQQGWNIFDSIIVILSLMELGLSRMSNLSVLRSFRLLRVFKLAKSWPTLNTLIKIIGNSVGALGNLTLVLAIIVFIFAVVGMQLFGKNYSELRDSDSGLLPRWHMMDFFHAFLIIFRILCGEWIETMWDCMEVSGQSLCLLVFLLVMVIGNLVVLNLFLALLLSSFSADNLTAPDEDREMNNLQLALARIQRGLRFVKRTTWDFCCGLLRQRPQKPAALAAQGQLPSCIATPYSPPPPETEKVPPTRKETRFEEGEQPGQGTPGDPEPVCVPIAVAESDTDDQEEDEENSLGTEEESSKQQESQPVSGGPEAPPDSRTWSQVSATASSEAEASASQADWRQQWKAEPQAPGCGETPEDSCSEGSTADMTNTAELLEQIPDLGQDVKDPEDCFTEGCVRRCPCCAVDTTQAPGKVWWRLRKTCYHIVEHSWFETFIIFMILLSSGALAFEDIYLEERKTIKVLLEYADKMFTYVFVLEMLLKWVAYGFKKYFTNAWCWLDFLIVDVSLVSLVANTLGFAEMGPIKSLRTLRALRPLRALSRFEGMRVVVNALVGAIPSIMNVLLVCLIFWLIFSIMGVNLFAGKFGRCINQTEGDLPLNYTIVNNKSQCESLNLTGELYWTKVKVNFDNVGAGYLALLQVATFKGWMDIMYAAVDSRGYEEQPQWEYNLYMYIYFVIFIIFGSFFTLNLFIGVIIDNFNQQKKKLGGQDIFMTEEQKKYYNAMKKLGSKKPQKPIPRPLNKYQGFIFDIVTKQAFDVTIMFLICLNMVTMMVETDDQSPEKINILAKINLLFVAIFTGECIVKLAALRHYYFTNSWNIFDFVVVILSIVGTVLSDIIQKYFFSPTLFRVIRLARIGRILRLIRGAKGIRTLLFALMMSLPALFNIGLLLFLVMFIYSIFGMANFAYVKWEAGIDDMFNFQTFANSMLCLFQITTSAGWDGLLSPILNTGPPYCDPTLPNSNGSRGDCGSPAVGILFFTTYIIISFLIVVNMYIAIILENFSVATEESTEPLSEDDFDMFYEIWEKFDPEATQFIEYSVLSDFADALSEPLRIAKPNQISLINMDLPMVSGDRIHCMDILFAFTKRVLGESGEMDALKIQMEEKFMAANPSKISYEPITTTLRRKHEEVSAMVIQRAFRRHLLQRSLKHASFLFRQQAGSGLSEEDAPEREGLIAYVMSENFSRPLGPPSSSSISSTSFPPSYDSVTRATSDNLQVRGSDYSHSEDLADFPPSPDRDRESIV

**Q.** With `COc1cccc(C(=O)NCc2noc(-c3nn(CCn4ccnc4)c4ccccc34)n2)c1OC` [compound 41] as the compound, how does the Emax at 50 µM [1, 13] read?
**A.** 71%

**Q.** Which IC50 [2] does the source give for `CN1CCN(c2ncc(-c3cc(Cl)cc(Cl)c3Cl)c(N)n2)CC1` [sipatrigine, reference compound] here?
**A.** 0.04 ± 0.001 µM

**Q.** And the neuroprotection ([1]; tested at 3 μM)?
**A.** 93 ^d %

**Q.** For `NCc1noc(-c2nn(Cc3ccccc3)c3ccccc23)n1` [compound 24], which IC50 [2] is on record?
**A.** 3.3 ± 0.6 µM

**Q.** For `O=C(NCc1noc(-c2c3ccccc3nn2CCn2ccnc2)n1)c1ccccc1` [compound 34], which Emax at 50 µM [1, 13] is on record?
**A.** 41 ± 9.4%

**Q.** For `CC(C)(C)OC(=O)NCc1noc(-c2nn(Cc3ccccc3)c3ccccc23)n1` [compound 14], which IC50 [2] is on record?
**A.** 8.3 µM

**Q.** What about the “neuroprotection at 50 μM” value [3] of the same compound?
**A.** 19 ^e %

**Q.** Which IC50 [2] does the source give for `Nc1nnc(-c2cccc(Cl)c2Cl)c(N)n1` [lamotrigine, reference compound] here?
**A.** 1.8 ± 0.2 µM

**Q.** What about the neuroprotection ([1]; tested at 30 μM, normalized to the effect of TTX) of the same compound?
**A.** 33 ^b %

**Q.** With `O=C(NCc1noc(-c2nn(CCn3ccnc3)c3ccccc23)n1)c1ccccc1` [compound 6, N-[[5-[1-(2-Imidazol-1-ylethyl)indazol-3-yl]-1,2,4-oxadiazol-3-yl]methyl]benzamide] as the compound, how does the “inactivated-state block (c) n (slope of the fit)” value [4] read?
**A.** 1.71 ± 0.73

**Q.** What about the “inactivated-state block (c) n (slope of the fit)” value [5] of the same compound?
**A.** 1.42 ± 0.1

**Q.** And the “10 Hz block (b) n (slope of the fit)” value [6]?
**A.** 1.21 ± 0.36

**Q.** And the “inactivated-state block (c) n (slope of the fit)” value [6]?
**A.** 1.43 ± 0.27

**Q.** And the “inactivated-state block (c) n (slope of the fit)” value [7]?
**A.** 0.78 ± 0.15

**Q.** What about the “inactivated-state block (c) n (slope of the fit)” value [8] of the same compound?
**A.** 2.24 ± 0.17

**Q.** And the “tonic block (a) n (slope of the fit)” value [8]?
**A.** 2.09 ± 1.73

**Q.** And the “inactivated-state block (c) n (slope of the fit)” value [9]?
**A.** 2.45 ± 2.59

**Q.** What about the “10 Hz block (b) n (slope of the fit)” value [10] of the same compound?
**A.** 1.82 ± 0.73

**Q.** And the “inactivated-state block (c) n (slope of the fit)” value [10]?
**A.** 1.48 ± 0.38

**Q.** What about the “tonic block (a) n (slope of the fit)” value [10] of the same compound?
**A.** 1.12 ± 0.51

**Q.** And the “T-cell immunosuppressive activity (inhibitory effect of sensitization; lymph node cell numbers, per cell proliferative response)” value [11]?
**A.** no evidence suggestive of any inhibitory effect of sensitization

**Q.** What about the “10 Hz block (b) n (slope of the fit)” value [12] of the same compound?
**A.** 1.16 ± 0.54

**Q.** And the “inactivated-state block (c) n (slope of the fit)” value [12]?
**A.** 0.99 ± 0.22

**Q.** And the Emax at 50 µM [1, 13]?
**A.** 46%

**Q.** For `NC1=N[C@H](O)[C@H]2[C@H]3O[C@]4(O)O[C@@H]([C@@H](O)[C@@]2(N1)[C@@H]4O)[C@]3(O)CO` [tetrodotoxin, reference compound], which neuroprotection [1] is on record?
**A.** 100 ^c %

**Q.** Which IC50 [2] does the source give for `NCc1noc(-c2c3ccccc3nn2Cc2ccccc2)n1` [compound 25] here?
**A.** 7 ± 2.8 µM

**Q.** Which IC50 [2] does the source give for `CC(C)(C)OC(=O)NCc1noc(-c2c3ccccc3nn2Cc2ccccc2)n1` [compound 15] here?
**A.** 5.5 µM

**Q.** What about the “neuroprotection at 50 μM” value [3] of the same compound?
**A.** 25 ^e %

**Q.** What does the source list for `O=C(NCc1noc(-c2c3ccccc3nn2CCn2ccnc2)n1)c1cccc(OC(F)(F)F)c1` [compound 51]?
**A.** 10 Hz block (b) n (slope of the fit) [4]: 1.32 ± 0.16; inactivated-state block (c) n (slope of the fit) [4]: 2.09 ± 0.32; tonic block (a) n (slope of the fit) [4]: 1.09 ± 0.24; 10 Hz block (b) n (slope of the fit) [5]: 2.62 ± 1.05; inactivated-state block (c) n (slope of the fit) [5]: 2.75 ± 0.66; tonic block (a) n (slope of the fit) [5]: 2.14 ± 0.51; 10 Hz block (b) n (slope of the fit) [6]: 1.34 ± 0.13; inactivated-state block (c) n (slope of the fit) [6]: 1.75 ± 0.12; tonic block (a) n (slope of the fit) [6]: 1.23 ± 0.18; 10 Hz block (b) n (slope of the fit) [7]: 0.35 ± 0.19; inactivated-state block (c) n (slope of the fit) [7]: 0.96 ± 0.19; 10 Hz block (b) n (slope of the fit) [8]: 2.63 ± 0.33; inactivated-state block (c) n (slope of the fit) [8]: 2.5 ± 0.1; tonic block (a) n (slope of the fit) [8]: 2.59 ± 0.41; 10 Hz block (b) n (slope of the fit) [9]: 0.42 ± 0.19; inactivated-state block (c) n (slope of the fit) [9]: 1.17 ± 0.18; 10 Hz block (b) n (slope of the fit) [10]: 0.63 ± 0.14; inactivated-state block (c) n (slope of the fit) [10]: 0.6 ± 0.12; tonic block (a) n (slope of the fit) [10]: 0.48 ± 0.14; 10 Hz block (b) n (slope of the fit) [12]: 0.37 ± 0.13; inactivated-state block (c) n (slope of the fit) [12]: 0.49 ± 0.15; tonic block (a) n (slope of the fit) [12]: 0.76 ± 0.23
